We go through 31 molecules from patent US9068970B2, “Efficient and effective supplement screening for the development of chemically defined media in cell culture” (Abbvie Inc., priority 2010, dated 2015).

Where two headings read alike, the source gives them in different places. Where a SMILES comes first, the peptide text is derived from it.

What all share (format): cell-based
For test [1], the system named is recombinant IgG producing Chinese Hamster Ovary cell line (CHO cell line #1). Put plainly: 24-well plate media supplement screening: peak viable cell density (CellTiter 96 AQueous). The protocol: (§1) 24-well plates were utilized at a working volume of 1.5 mL per well to serve as the platform for media supplement screening. An in-house, base chemically defined media (CDM #1) was used as the basal media for the purposes of the experiments. A recombinant IgG producing Chinese Hamster Ovary cell line (CHO cell line #1) was used for the media supplement screening phase of the experiments.
All 24-well plate screening experiments were designed using JMP7 commercially available statistics software (Cary, N.C.) using custom experimental options. Six individual media supplement screening experiments were performed to test over a hundred different supplements in statistically designed experiments and in a serial fashion. All screening experiments were performed at […] cultured at 210 rpm on a shaker table in a 5% humidified CO2 incubator. Gas permeable, rayon film plate covers (VWR International, Radnor, Pa., Catalog #60941-086) were employed as necessary to provide a sterile barrier between the well plates, the plastic plate cover, and the culture atmosphere. Supplement solutions were manually pipetted into the respective plate wells using concentrated, sterile stock solutions. The comprehensive list of media supplements evaluated for cell culture process improvement is shown below in Table 2:
(§2) Two cell culture performance indicators were measured in the high-throughput screening experiments: peak viable cell density and harvest titer. Time point samples were withdrawn from each of the respective plate wells on Days 6, 7, and 8 post inoculation and measured for their respective viable cell densities spectrophotometrically via the CellTiter 96 AQueous Solution Cell Proliferation Assay Kits™ (Promega, Madison, Wis.). Harvest Titer measurements were conducted via high performance liquid chromatography (HPLC) with a Poros A™ affinity column (Applied Biosystems, Foster City, Calif.). All experimental wells supplemented with a particular combination of media compounds were compared to an unsupplemented control, with the results expressed as relative values relative to the control.
(§3) Two cell culture performance indicators were measured in the high-throughput screening experiments as well as media verification experiments; peak viable cell density (VCD) and harvest titer. […] A few days after the last cell count measurement sample the plates were centrifuged and the supernatant was collected and stored at −80° C. for future analysis. Harvest titer measurements were conducted via high performance liquid chromatography (HPLC) with a Poros A™ affinity column (Applied Biosystems, Foster City, Calif.). All experimental wells supplemented with a particular combination of media compounds were compared to an unsupplemented control, with the results expressed as values relative to the control. For the media verification experiments in larger-scale shaker and spinner flasks, viable cell density and viability were measured via Cedex automated cell counters (Roche Applied Science, Indianapolis, Ind.). Harvest titer measurements were similarly measured via HPLC.
(§4) Standard Analysis of Variance (ANOVA) was used to measure the significance of individual supplements and their respective interactions towards the resulting cell culture technique performance. Individual analyses were conducted on both peak viable cell density and harvest titer for each of the respective screening experiments. Three different levels of each media supplement were used in these experiments: unsupplemented (Level 1), lightly supplemented (Level 2), and heavily supplemented (Level 3). […] The optimization subroutine intrinsic to the statistics software was used to analyze the screening dataset determine the identity of a high performance media blend. It is important to note that the selection method is a mathematical exercise which can lead to multiple blends identified as having the highest performance parameters, and the results are highly dependent on the initial first guess.

Test [2] has the same test system. Kind of test: 24-well plate media supplement screening: harvest titer (HPLC, Poros A affinity column). The protocol: as §1
All 24-well plate screening experiments were designed using JMP7 commercially available statistics software (Cary, N.C.) using custom experimental options. Six individual media supplement screening experiments were performed to test over a hundred different supplements in statistically designed experiments and in a serial fashion. […] Supplement solutions were manually pipetted into the respective plate wells using concentrated, sterile stock solutions. The comprehensive list of media supplements evaluated for cell culture process improvement is shown below in Table 2:
as §2, §3, §4
The aforementioned supplements were evaluated for improvements in cell culture technique performance.

The test system is the same in test [3]. Kind of test: Supplement screening: process performance (peak VCD and/or harvest titer) by inspectional/statistical analysis. The procedure:
as §4, with “guess. Three particular high performance blends were identified for further evaluation: […] The supplements whose relative concentrations supported a distinct pattern of either increasing or decreasing process performance were categorized into the clustered classification. […] These supplements were either compounds or groups of similar compounds such as polyamines, essential amino acids, and vitamins.” for “guess.”

For test [4] the test system is unchanged. Kind of test: JMP7 statistical identification of high performance media supplementation from a 15-supplement screening experiment. Conditions: for Concentration Range for Increase of Harvest Titer / Concentration Range for Increase of Peak VCD and Harvest Titer: range given, variability in culture volumes. The procedure:
as §4
Fifteen of these supplements, or groups of supplements, were screened in a separate statistically designed experiment for the final determination of high performance media blends for the maximization of peak VCD, harvest titer, and both of these variables simultaneously.
The JMP7 statistical software program was further used to identify the high performance media supplementation for maximizing peak VCD, harvest titer, and both simultaneously.

Where [5] appears, read: HTS experiments, CDM #1, relative to unsupplemented control.
Setting [6] is: univariate analysis of varying supplement concentrations.
Where [7] appears, read: predicted amount for addition into the unsupplemented control media.

Regarding `OC[C@H]1O[C@H](O[C@H]2[C@H](O)[C@@H](O)C(O)O[C@@H]2CO)[C@H](O)[C@@H](O)[C@@H]1O` (mixture of isomers) [Maltose], in test [1] (setting [5]), the “Effect on Peak VCD” value was “No change”. Besides, the “Effect on Harvest Titer” value in test [2] (setting [5]) is “Increase”. Further, the “Process Performance Pattern” value in test [3] (setting [6]) was “Wide dispersal”.
With `CCCCC/C=C\C/C=C\C/C=C\C/C=C\CCCC(=O)O` [Arachidonic acid], in test [1] (setting [5]), the “Effect on Peak VCD” value is recorded as “Decrease”. The “Effect on Harvest Titer” value in test [2] (setting [5]) was “Decrease”.
As to `O=C(O)CCCC[C@@H]1SC[C@@H]2NC(=O)N[C@@H]21` [Biotin], the “Effect on Peak VCD” value in test [1] (setting [5]) is listed as “No change”. The “Effect on Harvest Titer” value in test [2] (setting [5]) is “No change”.
`C[N+](C)(C)CCO.[Cl-]` [Choline chloride]: in test [1], the “Effect on Peak VCD” value was “No change”. In addition, the “Effect on Harvest Titer” value in test [2] is “No change”. Moreover, the “Process Performance Pattern” value in test [3] is reported as “Wide dispersal”.
As to `N[C@@H](CSSC[C@H](N)C(=O)O)C(=O)O` [Cystine, L-cystine], in test [1] (setting [5]), the “Effect on Peak VCD” value is reported as “Decrease”. Besides, the “Effect on Harvest Titer” value in test [2] (setting [5]) is “Decrease”.
Consider `O=C(O)CN(CCN(CC(=O)O)CC(=O)O)CC(=O)O` [EDTA], for which the “Effect on Peak VCD” value in test [1] (setting [5]) was “Increase”. Moreover, the “Effect on Harvest Titer” value in test [2] (setting [5]) is “Decrease”.
For `NCCO` [Ethanolamine] the same measures were “Increase” and “Decrease”.
Consider `Nc1nc(=O)c2nc(CNc3ccc(C(=O)N[C@@H](CCC(=O)O)C(=O)O)cc3)cnc2[nH]1` [Folate], for which the “Process Performance Pattern” value in test [3] (setting [6]) is on record as “Wide dispersal”.
In the case of `O=C(CO)[C@@H](O)[C@H](O)[C@H](O)CO` [Fructose], the “Effect on Peak VCD” value in test [1] (setting [5]) is listed as “No change”. In addition, the “Effect on Harvest Titer” value in test [2] (setting [5]) was “No change”.
Regarding `CC(=O)N[C@H]1C(O)O[C@H](CO)[C@H](O)[C@@H]1O` (stereo partly shown) [GalNAc, N-acetylgalactosamine], in test [1] (setting [5]), the “Effect on Peak VCD” value is recorded as “No change”. For the same molecule, the “Effect on Harvest Titer” value in test [2] (setting [5]) is listed as “Decrease”.
With `CC(=O)N[C@H]1C(O)O[C@H](CO)[C@@H](O)[C@@H]1O` (stereo partly shown) [GlcNAc, N-acetylglucosamine], the “Effect on Peak VCD” value in test [1] (setting [5]) is “Decrease”. Moreover, in test [2] (setting [5]), the “Effect on Harvest Titer” value was “No change”.
In the case of `N[C@@H](CCC(=O)N[C@@H](CS)C(=O)NCC(=O)O)C(=O)O` [Glutathione, Glutathione, reduced], in test [1] (setting [5]), the “Effect on Peak VCD” value is on record as “Decrease”. Also, the “Effect on Harvest Titer” value in test [2] (setting [5]) is “Decrease”.
In the case of `C[C@]12CCC(=O)C=C1CC[C@@H]1[C@@H]2[C@@H](O)C[C@@]2(C)[C@H]1CC[C@]2(O)C(=O)CO` [Hydrocortisone, reference compound], the “Effect on Peak VCD” value in test [1] (setting [5]) is “No change”. Also, the “Effect on Harvest Titer” value in test [2] (setting [5]) is listed as “Increase”.
As to `O=c1[nH]cnc2nc[nH]c12` [Hypoxanthine], in test [4], the “Concentration Range for Increase of Harvest Titer” value is reported as “(6.76 × 10^−4-8.68 × 10^−4) g/L”; the “Concentration Range for Increase of Peak VCD and Harvest Titer” value was “(6.76 × 10^−4-8.68 × 10^−4) g/L”.
Take `C[C@H](N)C(=O)N[C@@H](CCC(N)=O)C(=O)O` [L-alanyl-L-glutamine] (H-Ala-Gln-OH): the “Effect on Peak VCD” value in test [1] (setting [5]) was “Increase”. Also, the “Effect on Harvest Titer” value in test [2] (setting [5]) is “No change”.
In the case of `Cl.N[C@@H](Cc1cnc[nH]1)C(=O)O.O` [L-histidine*HCl*H2O], in test [4] (setting [7]), the “Concentration Target (Range) for Increase of Harvest Titer” value is reported as “+0.25 (0.22-0.28) g/L”; the “Concentration Target (Range) for Increase of Peak VCD” value is listed as “+0.21 (0.18-0.23) g/L”; the “Concentration Target (Range) for Increase of Peak VCD and Harvest Titer” value is “+0.25 (0.22-0.28) g/L”.
For `CCCCC/C=C\C/C=C\CCCCCCCC(=O)O` [Linoleic acid], in test [1] (setting [5]), the “Effect on Peak VCD” value is recorded as “No change”. Further, the “Effect on Harvest Titer” value in test [2] (setting [5]) is listed as “Increase”.
In the case of `NC(=O)c1cccnc1` [Nicotinamide], the “Effect on Peak VCD” value in test [1] (setting [5]) was “Decrease”. The “Effect on Harvest Titer” value in test [2] (setting [5]) is recorded as “No change”.
For `Nc1ccc(C(=O)O)cc1` [PABA, Para-amino benzoic acid], the “Effect on Peak VCD” value in test [1] (setting [5]) was “Decrease”. Further, the “Effect on Harvest Titer” value in test [2] (setting [5]) is “No change”.
In the case of `NCCCCN` [Putrescine], the “Effect on Peak VCD” value in test [1] (setting [5]) was “Decrease”. For the same molecule, the “Effect on Harvest Titer” value in test [2] (setting [5]) was “No change”. For the same molecule, in test [4], the “Concentration Range for Increase of Harvest Titer” value is listed as “( 1.06 × 10^−4-1.36 × 10^−4) g/L”; the “Concentration Range for Increase of Peak VCD and Harvest Titer” value was “(1.06 × 10^−4-1.36 × 10^−4) g/L”.
As to `Cc1cc2nc3c(=O)[nH]c(=O)nc-3n(C[C@H](O)[C@H](O)[C@H](O)CO)c2cc1C` [Riboflavin], the “Effect on Peak VCD” value in test [1] (setting [5]) is “Decrease”. For the same molecule, the “Effect on Harvest Titer” value in test [2] (setting [5]) is “No change”.
For the molecule `CNCC(=O)O` [Sarcosine], the “Effect on Peak VCD” value in test [1] (setting [5]) is on record as “No change”. Moreover, in test [2] (setting [5]), the “Effect on Harvest Titer” value is listed as “Decrease”.
For `O=C([O-])CC(O)(CC(=O)[O-])C(=O)[O-].[Na+].[Na+].[Na+]` [Sodium citrate] the same measures were “No change” and “No change”.
For `CC(=O)C(=O)[O-].[Na+]` [Sodium pyruvate] the same measures were “Decrease” and “No change”.
`NCCCCNCCCN` [Spermidine, free base, Spermidine]: in test [4], the “Concentration Range for Increase of Harvest Titer” value was “(4.22 × 10^−5-5.42 × 10^−5) g/L”; the “Concentration Range for Increase of Peak VCD and Harvest Titer” value is “(4.22 × 10^−5-5.42 × 10^−5) g/L”.
As for `NCCCNCCCCNCCCN` [Spermine, free base, Spermine], in test [4], the “Concentration Range for Increase of Harvest Titer” value is “(8.11 × 10^−5-1.04 × 10^−4) g/L”; the “Concentration Range for Increase of Peak VCD and Harvest Titer” value is recorded as “(8.11 × 10^−5-1.04 × 10^−4) g/L”.
`NCCS(=O)(=O)O` [Taurine]: in test [1] (setting [5]), the “Effect on Peak VCD” value is “Decrease”. Moreover, the “Effect on Harvest Titer” value in test [2] (setting [5]) was “Decrease”.
`Cc1ncc(CO)c(CO)c1O.Cl` [Vitamin B-6, Pyridoxine hydrochloride]: the “Effect on Peak VCD” value in test [1] (setting [5]) is “No change”. In test [2] (setting [5]), the “Effect on Harvest Titer” value is listed as “Increase”.
As for `O=C[C@H](O)[C@@H](O)[C@H](O)CO` [Xylose], the “Effect on Peak VCD” value in test [1] (setting [5]) is listed as “No change”. Also, the “Effect on Harvest Titer” value in test [2] (setting [5]) is listed as “Increase”. Further, in test [3] (setting [6]), the “Process Performance Pattern” value was “Wide dispersal”.
Concanavalin A: in test [1] (setting [5]), the “Effect on Peak VCD” value was “Decrease”. The “Effect on Harvest Titer” value in test [2] (setting [5]) is on record as “Decrease”.
As for Cyanocobalamin [Vitamin B-12], the “Effect on Peak VCD” value in test [1] (setting [5]) is on record as “No change”. In addition, the “Effect on Harvest Titer” value in test [2] (setting [5]) is listed as “Decrease”.
